From US20080318938A1, “METHODS FOR TREATING ABERRANT CELL PROLIFERATION DISORDERS” (priority 2007, published 2008)

How the values were obtained:
[1] = system: BZD (peripheral) peripheral Benzodiazepine receptor; assay: Receptor binding
[2] = system: A3; assay: Inhibition of cell proliferation (MTT); format: cell-based; details: Homo sapiens; A3, Leukemia; 48 hours
Procedure: (§1) Inhibition of cell proliferation is determined in human tumor cell lines. Innoculation density and doubling times for specific cell lines are listed at World Wide Web URL “dtp.nci.nih.gov/docs/misc/common_files/cell_list.html.”
(§2) • 1. Plate adherent cells the day before starting the experiment in 180 μl growth media (see list hereafter). • 2. Day of experiment, count and plate suspension cells in 180 μl growth media (see list on next page). • 3. Make 10× Compound, vehicle, and chemotherapeutic cocktail • a. Compound (1× to 10×) • i. 10 μM Compound to 100 μM • ii. 3 μM Compound to 30 μM • iii. 1 μM Compound to 10 μM • iv. 0.3 μM Compound to 3 μM • v. 0.1 μM Compound to 1 μM • b. Vehicle • i. PBS, equivalent to the volume used for 10 μM Compound (1× is ˜0.06% PBS) • c. Chemotherapeutic cocktail (1× to 10×): • i. 1 μM Velcade to 10 μM • ii. 100 μM Etoposide to 1 mM • iii. 20 μM Taxol to 200 μM • 4. Add 20 μl of the 10× compound/vehicle/chemotherapeutic cocktail to cells. • 5. Incubate at 37° C., 5% CO2 for 48 hours. • 6. Aspirate media. For suspension cells, spin plate at 1500 RPM for 10 minutes. Use a multichannel pipettor to slowly remove media. • 7. Add 200 μl of Thiazolyl Blue Tetrazolium Bromide (MTT) to each well: 0.863 mg/ml MTT in growth media.
(§3) Proliferation of several cancer cells was inhibited by compound TA1-1B (which is a particular mixture of the isomers represented by TA1-1A), as shown in the following table (Table 1). The value EC50 is the amount of Compound TA1-1B that results in 50% inhibition of proliferation of the indicated cell type.

[3] = system: UACC-62; assay: Inhibition of cell proliferation (MTT); format: cell-based; details: Homo sapiens; UACC-62, Melanoma; 48 hours
Procedure: as §1, §2, §3

[4] = system: Ku-812; assay: Inhibition of cell proliferation (MTT); format: cell-based; details: Homo sapiens, KU812; Ku-812, Leukemia; 48 hours
Procedure: as §1, §2, §3

[5] = system: NK92MI; assay: Inhibition of cell proliferation (MTT); format: cell-based; details: Homo sapiens, Lymphoma, 48 hours
Procedure: as §1, §2, §3

[6] = system: NC37; assay: Inhibition of cell proliferation (MTT); format: cell-based; details: Homo sapiens, NC-37; NC37, Lymphoma; 48 hours
Procedure: as §1, §2, §3

[7] = system: KM12; assay: Inhibition of cell proliferation (MTT); format: cell-based; details: Homo sapiens; KM12, Colon; 48 hours
Procedure: as §1, §2, §3

[8] = system: RS4-11; assay: Inhibition of cell proliferation (MTT); format: cell-based; details: Homo sapiens; RS4-11, Leukemia; 48 hours
Procedure: as §1, §2, §3

[9] = system: MCF7; assay: Inhibition of cell proliferation (MTT); format: cell-based; details: Homo sapiens; MCF7, Breast; 48 hours
Procedure: as §1, §2, §3

[10] = system: OVCAR-5; assay: Inhibition of cell proliferation (MTT); format: cell-based; details: Homo sapiens; OVCAR-5, Ovarian; 48 hours
Procedure: as §1, §2, §3

[11] = system: 786-0; assay: Inhibition of cell proliferation (MTT); format: cell-based; details: Homo sapiens; 786-0, Renal; 48 hours
Procedure: as §1, §2, §3

[12] = system: MALME-3M; assay: Inhibition of cell proliferation (MTT); format: cell-based; details: Homo sapiens, Melanoma, 48 hours
Procedure: as §1, §2, §3

[13] = system: MDA-MB-435; assay: Inhibition of cell proliferation (MTT); format: cell-based; details: Homo sapiens; MDA-MB-435, Breast; 48 hours
Procedure: as §1, §2, §3

[14] = system: NCI-H460; assay: Inhibition of cell proliferation (MTT); format: cell-based; details: Homo sapiens; NCI-H460, Non Small Cell Lung; 48 hours
Procedure: as §1, §2, §3

[15] = system: NCI-H322M; assay: Inhibition of cell proliferation (MTT); format: cell-based; details: Homo sapiens, Non Small Cell Lung, 48 hours
Procedure: as §1, §2, §3

[16] = system: DOHH2; assay: Inhibition of cell proliferation (MTT); format: cell-based; details: Homo sapiens, DOHH-2; DOHH2, Lymphoma; 48 hours
Procedure: as §1, §2, §3

[17] = system: T-47D; assay: Inhibition of cell proliferation (MTT); format: cell-based; details: Homo sapiens, T47D, Breast, 48 hours
Procedure: as §1, §2, §3

[18] = system: Namalwa; assay: Inhibition of cell proliferation (MTT); format: cell-based; details: Homo sapiens, Lymphoma, 48 hours
Procedure: as §1, §2, §3

[19] = system: HS 578T; assay: Inhibition of cell proliferation (MTT); format: cell-based; details: Homo sapiens, Breast, 48 hours
Procedure: as §1, §2, §3

[20] = system: JM1; assay: Inhibition of cell proliferation (MTT); format: cell-based; details: Homo sapiens; JM1, Lymphoma; 48 hours
Procedure: as §1, §2, §3

[21] = system: UACC-257; assay: Inhibition of cell proliferation (MTT); format: cell-based; details: Homo sapiens; UACC-257, Melanoma; 48 hours
Procedure: as §1, §2, §3

[22] = system: SF-268; assay: Inhibition of cell proliferation (MTT); format: cell-based; details: Homo sapiens; SF-268, CNS; 48 hours
Procedure: as §1, §2, §3

[23] = system: Hut78; assay: Inhibition of cell proliferation (MTT); format: cell-based; details: Homo sapiens; Hut78, Lymphoma; 48 hours
Procedure: as §1, §2, §3

[24] = system: Ramos; assay: Inhibition of cell proliferation (MTT); format: cell-based; details: Homo sapiens, Lymphoma, 48 hours
Procedure: as §1, §2, §3

[25] = system: MC116; assay: Inhibition of cell proliferation (MTT); format: cell-based; details: Homo sapiens; MC116, Lymphoma; 48 hours
Procedure: as §1, §2, §3

[26] = system: Reh; assay: Inhibition of cell proliferation (MTT); format: cell-based; details: Homo sapiens, Leukemia, 48 hours
Procedure: as §1, §2, §3

[27] = system: I 9.2; assay: Inhibition of cell proliferation (MTT); format: cell-based; details: Homo sapiens; I 9.2, Leukemia; 48 hours
Procedure: as §1, §2, §3

[28] = system: SNB-75; assay: Inhibition of cell proliferation (MTT); format: cell-based; details: Homo sapiens; SNB-75, CNS; 48 hours
Procedure: as §1, §2, §3

[29] = system: THP-1; assay: Inhibition of cell proliferation (MTT); format: cell-based; details: Homo sapiens; THP-1, Leukemia; 48 hours
Procedure: as §1, §2, §3

[30] = system: OVCAR-3; assay: Inhibition of cell proliferation (MTT); format: cell-based; details: Homo sapiens; OVCAR-3, Ovarian; 48 hours
Procedure: as §1, §2, §3

[31] = system: HL-60(TB); assay: Inhibition of cell proliferation (MTT); format: cell-based; details: Homo sapiens, Leukemia, 48 hours
Procedure: as §1, §2, §3

[32] = system: HCC-2998; assay: Inhibition of cell proliferation (MTT); format: cell-based; details: Homo sapiens; HCC-2998, Colon; 48 hours
Procedure: as §1, §2, §3

## CN1CCC[C@H]1CCNC(=O)c1cn2c3c(c(N4CCC(c5cnccn5)C4)c(F)cc3c1=O)Oc1cc3ccccc3cc1-2 (some centres unmarked) [TA1-1B]
[1]
  % inhibition @ 1 uM: 65%
[2]
  EC50: 3.63 µM
[3]
  EC50: 4.88 µM
[4]
  EC50: 4.19 µM
[5]
  EC50: 1.3 µM
[6]
  EC50: 1.26 µM
[7]
  EC50: 3.06 µM
[8]
  EC50: 0.55 µM
[9]
  EC50: 3.46 µM
[10]
  EC50: 2.17 µM
[11]
  EC50: 4.34 µM
[12]
  EC50: 5.09 µM
[13]
  EC50: 3.63 µM
[14]
  EC50: 4.01 µM
[15]
  EC50: 4.28 µM
[16]
  EC50: 1.56 µM
[17]
  EC50: 6.56 µM
[18]
  EC50: 1.42 µM
[19]
  EC50: 1.94 µM
[20]
  EC50: 2.23 µM
[21]
  EC50: 5.1 µM
[22]
  EC50: 1.23 µM
[23]
  EC50: 3.3 µM
[24]
  EC50: 1.33 µM
[25]
  EC50: 3.87 µM
[26]
  EC50: 1.32 µM
[27]
  EC50: 3.69 µM
[28]
  EC50: 2.31 µM
[29]
  EC50: 3.18 µM
[30]
  EC50: 4.28 µM
[31]
  EC50: 1.65 µM
[32]
  EC50: 2.54 µM
